Assay results: article PMC11474028, “Lipopeptide antibiotics disrupt interactions of undecaprenyl phosphate with UptA” (Proceedings of the National Academy of Sciences of the …, 2024)
Entries after “also recorded” stand apart in the source; their conditions may differ.

Assays:
[1] = system: B. subtilis strains bearing R112 and R118 mutations on UptA; conditions: cited from earlier work
From the text: Conserved arginine residues in the putative membrane reentrant loops of E. coli DedA proteins YqjA (R130) and YghB (R136) are important for the cellular role of these proteins ([36]). […] How these residues impact substrate interactions, however, is not known. […] Despite the combined cellular pool of C55-PP and C55-P being limited to ~1.5 × 10^5 molecules per cell ([56]), they mediate the transport of glycan-bearing components of the cell wall peptidoglycan, teichoic acid, and capsular polysaccharid ...

[2] = ref 46 (ref 23, 46, 60, 61); cited from earlier work
From the text: To this end, we prepared UptA:C55-P mixtures and then equilibrated aliquots with bacitracin and vancomycin. […] In line with the specificity of bacitracin for C55-PP rather than C55-P, this antibiotic modestly ...

UptA = UptA (Bacillus subtilis, UniProt O31823); test: Native MS of antibiotic binding to UptA; conditions: 2.5 µM UptA, 10 µM C55-P, antibiotic up to 100 µM (polymyxins 100 µM), 0.05% LDAO, 200 mM ammonium acetate, 75 V
Chain of UptA (O31823 whole entry): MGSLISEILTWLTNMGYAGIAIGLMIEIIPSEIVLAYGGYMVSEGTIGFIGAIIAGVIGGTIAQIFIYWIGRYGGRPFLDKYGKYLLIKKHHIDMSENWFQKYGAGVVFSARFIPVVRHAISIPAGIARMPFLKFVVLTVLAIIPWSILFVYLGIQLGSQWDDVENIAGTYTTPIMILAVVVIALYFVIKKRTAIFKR
Protocol: We next investigate how UptA and its complex with C55-P interact with a range of cell-wall targeting antibiotics including the lipopeptides daptomycin and amphomycin. […] We investigated whether daptomycin affects C55-P binding to UptA by recording spectra for solutions containing 2.5 µM UptA, 10 µM C55-P, and different concentrations of daptomycin.
(§1) Amphomycin and derivatives are known to kill bacteria by forming complexes with free C55-P ([46]), however, whether or not this involves a direct interaction with a protein cellular target is not known. We therefore investigated how amphomycin affects the UptA:C55-P complex. We recorded spectra for solutions containing 2.5 µM UptA, 10 µM C55-P and then equilibrated aliquots with increasing concentrations of amphomycin.
The amphiphilic nature of daptomycin and amphomycin raises the possibility that these lipopeptide antibiotics may promiscuously bind to UptA in a nonspecific manner. We probe this possibility by recording spectra for UptA:C55-P solutions in the presence of 100 µM polymyxin B and 100 µM polymyxin E. These polymyxins are membrane-disrupting lipopeptides that target the outer membrane lipopolysaccharides in Gram-negative bacteria ([47]) but without a known affinity for C55-P or UptA.
To this end, we prepared UptA:C55-P mixtures and then equilibrated aliquots with bacitracin and vancomycin.
(§2) Detailed experimental procedures are provided in SI Appendix. Briefly, UptA (wild type and mutants) was expressed in E. coli C43(DE3) cells (Lucigen) with GFP fusion on the C-terminus and solubilized from the membrane fraction by n-dodecyl-β-D-maltopyranoside (DDM). After purification by affinity chromatography, the GFP was cleaved by TEV protease and removed, and UptA was further purified by size-exclusion chromatography in a buffer containing 20 mM Tris-HCl (pH 8.0), 200 mM NaCl, 0.02% DDM. Before measurements, proteins were buffer-exchanged into 0.05% LDAO, 200 mM ammonium acetate at the desired pH using a centrifugal buffer exchange device (Micro Bio-Spin 6, Bio-Rad). Stock solutions of lipids were prepared from chloroform/methanol solution by evaporating aliquots of known volume in a SpeedVac. After drying, the lipid films were weighed and resuspended to a final concentration of 0.5 mM in 200 mM ammonium acetate and 0.05% LDAO by vertexing. Stock solutions of 0.5 mM amphomycin, aspartocin D, daptomycin, polymyxin B, polymyxin E, and bacitracin were made in the same buffer. All experiments were repeated three times from newly prepared stock solutions. Native mass spectrometry was performed on a Q-Exactive hybrid quadrupole-Orbitrap mass spectrometer (Thermo Fisher Scientific, Bremen, Germany), and lipid identification was performed on an Orbitrap Eclipse Tribrid mass spectrometer (Thermo). […]

UptA:C55-P complex = test: Native MS of UptA:C55-P complex in the presence of antibiotics; type: binding, Bacillus subtilis; conditions: 2.5 µM UptA, 10 µM C55-P; for effect of antibiotic on UptA:C55-P complex (in words): 0 to 100 µM antibiotic, 75 V, mean of three independent replicates
Protocol: as §1
(A) Mass spectra (6+ charge state) for solutions containing 2.5 µM UptA and 10 µM C55-P incubated with 0 to 100 µM amphomycin. (B) Relative intensity of C55-P bound to UptA in the presence of amphomycin and daptomycin. The bar represents the mean of three independent replicates shown as data points and error bars are SD. […] (C) Fraction of C55-P bound to UptA in the presence of cell wall targeting antibiotics. Each sample contains 2.5 µM UptA, 10 µM C55-P and 100 µM of indicated antibiotic, and spectra were acquired using the same instrument settings and collisional activation of 75 V. The bar represents the mean of three independent replicates shown as data points, and the error bar represents SD. […]
as §2

Substance: amphomycin
- susceptibility of B. subtilis cells with UptA R112 and R118 mutations (in words) [1]: more susceptible to inhibition by amphomycin
- complex formation with free C55-P (in words) [2]: known propensity to form complexes with free C55-P molecules
- binding of antibiotic to UptA (in words) (UptA): peaks consistent with amphomycin binding to UptA; also recorded: bind to UptA with higher affinity than other cell-wall targeting antimicrobial peptides such as bacitracin and vancomycin
- effect of antibiotic on UptA:C55-P complex (in words) (UptA:C55-P complex): peak intensities of the UptA:C55-P complex reduce with respect to an increase in the concentration of amphomycin; also recorded: induce dissociation of UptA:C55-P complexes; also recorded: bind directly to UptA and induce dissociation of the UptA:C55-P complex; also recorded: can directly inhibit UptA function by out-competing the substrate for the protein binding
- effect of antibiotic on UptA:C55-P complex (in words) (UptA:C55-P complex; listed as Amphomycin): destabilizes the UptA:C55-P complex and sequesters C55-P
- UptA:C55-P complex remaining at 10-fold molar excess of antibiotic (in words) (UptA:C55-P complex; 10-fold molar excess of amphomycin): little-to-no UptA:C55-P complexes remained
